Test results published in patent US8614201B2 (Janssen Pharmaceutica NV, priority 2009, dated 2013).

The molecules below were run against Human TRPA1 (Homo sapiens, UniProt O75762) (assay: Assay 1: In vitro cellular testing of TRPA1 modulation (CHO-TREx, Fluo-3 calcium fluorescence, AITC agonist)). Conditions: CHO-TREx cells expressing human TRPA1; Fluo-3 fluorescence (FLIPR/Tetra); agonist 15 μM allyl isothiocyanate (AITC); 30 minute antagonist incubation.
Type: cell-based
Set-up: expressed in transfected cells; host or cells: CHO-TREx cells (Invitrogen), vector pcDNA4/TO
Summary of the method: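 Tetracycline-induced CHO-TREx cells stably expressing human TRPA1, loaded with 4 μM Fluo-3 AM, preincubated 30 min with compound (serial dilution typically from 10 μM, three-fold steps) in HEPES saline pH 7.4. Fluorescence change over 3 min after 15 μM AITC; IC50 from Hill fit versus no-antagonist and 10 μM ruthenium red controls.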

Sequence of Human TRPA1 (O75762 whole entry): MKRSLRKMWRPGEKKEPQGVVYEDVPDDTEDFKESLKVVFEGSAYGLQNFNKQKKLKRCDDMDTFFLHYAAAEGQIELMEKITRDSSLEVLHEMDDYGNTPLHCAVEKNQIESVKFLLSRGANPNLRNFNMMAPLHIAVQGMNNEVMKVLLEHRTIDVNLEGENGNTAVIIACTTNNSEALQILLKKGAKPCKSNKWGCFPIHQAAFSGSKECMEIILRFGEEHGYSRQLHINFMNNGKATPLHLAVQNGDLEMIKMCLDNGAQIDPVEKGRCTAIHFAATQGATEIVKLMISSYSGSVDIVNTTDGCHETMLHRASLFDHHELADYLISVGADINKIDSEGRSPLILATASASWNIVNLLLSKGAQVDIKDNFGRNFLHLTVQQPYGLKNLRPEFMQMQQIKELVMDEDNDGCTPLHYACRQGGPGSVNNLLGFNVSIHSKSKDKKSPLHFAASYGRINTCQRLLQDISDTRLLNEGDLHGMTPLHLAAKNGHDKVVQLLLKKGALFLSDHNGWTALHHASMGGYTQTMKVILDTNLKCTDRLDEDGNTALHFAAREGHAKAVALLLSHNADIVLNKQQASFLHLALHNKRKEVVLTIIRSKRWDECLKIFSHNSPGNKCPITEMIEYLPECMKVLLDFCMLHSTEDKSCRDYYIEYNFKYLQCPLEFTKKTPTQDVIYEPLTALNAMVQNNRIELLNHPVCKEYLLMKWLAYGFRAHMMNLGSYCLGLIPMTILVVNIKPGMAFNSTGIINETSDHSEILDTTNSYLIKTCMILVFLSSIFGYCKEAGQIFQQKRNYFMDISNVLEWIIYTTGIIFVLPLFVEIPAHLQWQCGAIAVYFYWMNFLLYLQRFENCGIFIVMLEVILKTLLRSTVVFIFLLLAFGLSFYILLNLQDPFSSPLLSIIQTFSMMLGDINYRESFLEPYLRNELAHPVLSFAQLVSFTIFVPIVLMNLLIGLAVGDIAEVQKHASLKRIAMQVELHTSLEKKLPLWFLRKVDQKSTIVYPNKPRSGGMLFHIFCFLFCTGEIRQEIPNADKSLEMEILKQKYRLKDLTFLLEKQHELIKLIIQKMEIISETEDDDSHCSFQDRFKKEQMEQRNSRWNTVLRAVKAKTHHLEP

SMILES | IC50 [nM]
O=C(NCc1cc(NCc2ccccn2)nc(-c2ccc(C(F)(F)F)cc2)c1)[C@@H]1CCCN1S(=O)(=O)c1ccc(F)cc1 [Example 392, 1-[(4-Fluorophenyl)sulfonyl]-N-({2-[(pyridin-2-ylmethyl)amino]-6-[4-(trifluoromethyl)phenyl]pyridin-4-yl}methyl)-L-prolinamide] | 414
CN(C)c1cc(CNC(=O)[C@@H]2CC(F)(F)CN2S(=O)(=O)c2ccc(F)cc2)cc(-c2ccc(C(F)(F)F)cc2)n1 [Example 393, N-({2-(Dimethylamino)-6-[4-(trifluoromethyl)phenyl]pyridin-4-yl}methyl)-4,4-difluoro-1-[(4-fluorophenyl)sulfonyl]-L-prolinamide] | 461
O=C(NCc1cc(NCc2ccccc2)nc(-c2ccc(C(F)(F)F)cc2)c1)[C@@H]1CC(F)(F)CN1S(=O)(=O)c1ccc(F)cc1 [Example 394, N-({2-(Benzylamino)-6-[4-(trifluoromethyl)phenyl]pyridin-4-yl}methyl)-4,4-difluoro-1-[(4-fluorophenyl)sulfonyl]-L-prolinamide] | 598
O=C(NCc1cc(NCc2cccnc2)nc(-c2ccc(C(F)(F)F)cc2)c1)[C@@H]1CCCN1S(=O)(=O)c1ccc(F)cc1 [Example 395, 1-[(4-Fluorophenyl)sulfonyl]-N-({2-[(pyridin-3-ylmethyl)amino]-6-[4-(trifluoromethyl)phenyl]pyridin-4-yl}methyl)-L-prolinamide] | 2980
CC1CCCN1c1cc(CNC(=O)[C@@H]2CC(F)(F)CN2S(=O)(=O)c2ccc(F)cc2)cc(-c2ccc(C(F)(F)F)cc2)n1 (stereo partly drawn) [Example 396, 4,4-Difluoro-1-[(4-fluorophenyl)sulfonyl]-N-({2-(2-methylpyrrolidin-1-yl)-6-[4-(trifluoromethyl)phenyl]pyridin-4-yl}methyl)-L-prolinamide] | 1790
CC1CCCN1c1cc(CNC(=O)[C@@H]2CC(F)(F)CN2S(=O)(=O)c2ccc(Cl)s2)cc(-c2ccc(C(F)(F)F)cc2)n1 (stereo partly drawn) [Example 397, 1-[(5-Chlorothiophen-2-yl)sulfonyl]-4,4-difluoro-N-({2-(2-methylpyrrolidin-1-yl)-6-[4-(trifluoromethyl)phenyl]pyridin-4-yl}methyl)-L-prolinamide] | 2950
CC(Nc1cc(CNC(=O)[C@@H]2CC(F)(F)CN2S(=O)(=O)c2ccc(F)cc2)cc(-c2ccc(C(F)(F)F)cc2)n1)c1cccnc1 (stereo partly drawn) [Example 398, 4,4-Difluoro-1-[(4-fluorophenyl)sulfonyl]-N-({2-[(1-pyridin-3-ylethyl)amino]-6-[4-(trifluoromethyl)phenyl]pyridin-4-yl}methyl)-L-prolinamide] | 7090
CC(Nc1cc(CNC(=O)[C@@H]2CC(F)(F)CN2S(=O)(=O)c2ccc(Cl)s2)cc(-c2ccc(C(F)(F)F)cc2)n1)c1cccnc1 (stereo partly drawn) [Example 399, 1-[(5-Chlorothiophen-2-yl)sulfonyl]-4,4-difluoro-N-({2-[(1-pyridin-3-ylethyl)amino]-6-[4-(trifluoromethyl)phenyl]pyridin-4-yl}methyl)-L-prolinamide] | 2610
CC(Nc1cc(CNC(=O)[C@@H]2CC(F)(F)CN2S(=O)(=O)c2ccc(Cl)s2)cc(-c2ccc(C(F)(F)F)cc2)n1)c1ccncc1 (stereo partly drawn) [Example 400, 1-[(5-Chlorothiophen-2-yl)sulfonyl]-4,4-difluoro-N-({2-[(1-pyridin-4-ylethyl)amino]-6-[4-(trifluoromethyl)phenyl]pyridin-4-yl}methyl)-L-prolinamide] | 1830
CC(Nc1cc(CNC(=O)[C@@H]2CC(F)(F)CN2S(=O)(=O)c2ccc(F)cc2)cc(-c2ccc(C(F)(F)F)cc2)n1)c1ccncc1 (stereo partly drawn) [Example 401, 4,4-Difluoro-1-[(4-fluorophenyl)sulfonyl]-N-({2-[(1-pyridin-4-ylethyl)amino]-6-[4-(trifluoromethyl)phenyl]pyridin-4-yl}methyl)-L-prolinamide] | 2520
CC(Nc1cc(CNC(=O)[C@@H]2CCCN2S(=O)(=O)c2ccc(F)cc2)cc(-c2ccc(C(F)(F)F)cc2)n1)c1ccncc1 (stereo partly drawn) [Example 402, 1-[(4-Fluorophenyl)sulfonyl]-N-({2-[(1-pyridin-4-ylethyl)amino]-6-[4-(trifluoromethyl)phenyl]pyridin-4-yl}methyl)-L-prolinamide] | 594
CC(Nc1cc(CNC(=O)[C@@H]2CCCN2S(=O)(=O)c2ccc(Cl)s2)cc(-c2ccc(C(F)(F)F)cc2)n1)c1ccncc1 (stereo partly drawn) [Example 403, 1-[(5-Chlorothiophen-2-yl)sulfonyl]-N-({2-[(1-pyridin-4-ylethyl)amino]-6-[4-(trifluoromethyl)phenyl]pyridin-4-yl}methyl)-L-prolinamide] | 466
CC(Nc1cc(CNC(=O)[C@@H]2C=CCN2S(=O)(=O)c2ccc(Cl)s2)cc(-c2ccc(C(F)(F)F)cc2)n1)c1ccncc1 (stereo partly drawn) [Example 404, (2S)-1-[(5-Chlorothiophen-2-yl)sulfonyl]-N-({2-[(1-pyridin-4-ylethyl)amino]-6-[4-(trifluoromethyl)phenyl]pyridin-4-yl}methyl)-2,5-dihydro-1H-pyrrole-2-carboxamide] | 1910
CC(Nc1cc(CNC(=O)[C@@H]2CCCN2S(=O)(=O)c2ccc(Cl)s2)cc(-c2ccc(C(F)(F)F)cc2)n1)c1cccnc1 (stereo partly drawn) [Example 405, 1-[(5-Chlorothiophen-2-yl)sulfonyl]-N-({2-[(1-pyridin-3-ylethyl)amino]-6-[4-(trifluoromethyl)phenyl]pyridin-4-yl}methyl)-L-prolinamide] | 481
CC(Nc1cc(CNC(=O)[C@@H]2C=CCN2S(=O)(=O)c2ccc(F)cc2)cc(-c2ccc(C(F)(F)F)cc2)n1)c1ccccc1 (stereo partly drawn) [Example 406, (2S)-1-[(4-Fluorophenyl)sulfonyl]-N-({2-[(1-phenylethyl)amino]-6-[4-(trifluoromethyl)phenyl]pyridin-4-yl}methyl)-2,5-dihydro-1H-pyrrole-2-carboxamide] | 833
CC(Nc1cc(CNC(=O)[C@@H]2C=CCN2S(=O)(=O)c2ccc(Cl)s2)cc(-c2ccc(C(F)(F)F)cc2)n1)c1ccccc1 (stereo partly drawn) [Example 407, (2S)-1-[(5-Chlorothiophen-2-yl)sulfonyl]-N-({2-[(1-phenylethyl)amino]-6-[4-(trifluoromethyl)phenyl]pyridin-4-yl}methyl)-2,5-dihydro-1H-pyrrole-2-carboxamide] | 185
CC(Nc1cc(CNC(=O)[C@@H]2CCCN2S(=O)(=O)c2ccc(F)cc2)cc(-c2ccc(C(F)(F)F)cc2)n1)c1ccccn1 (stereo partly drawn) [Example 408, 1-[(4-Fluorophenyl)sulfonyl]-N-({2-[(1-pyridin-2-ylethyl)amino]-6-[4-(trifluoromethyl)phenyl]pyridin-4-yl}methyl)-L-prolinamide] | 54
CC(Nc1cc(CNC(=O)[C@@H]2CCCN2S(=O)(=O)c2ccc(Cl)s2)cc(-c2ccc(C(F)(F)F)cc2)n1)c1ccccn1 (stereo partly drawn) [Example 409, 1-[(5-Chlorothiophen-2-yl)sulfonyl]-N-({2-[(1-pyridin-2-ylethyl)amino]-6-[4-(trifluoromethyl)phenyl]pyridin-4-yl}methyl)-L-prolinamide] | 64
CC(Nc1cc(CNC(=O)[C@@H]2CC(F)(F)CN2S(=O)(=O)c2ccc(F)cc2)cc(-c2ccc(C(F)(F)F)cc2)n1)c1ccccc1 (stereo partly drawn) [Example 410, 4,4-Difluoro-1-[(4-fluorophenyl)sulfonyl]-N-({2-[(1-phenylethyl)amino]-6-[4-(trifluoromethyl)phenyl]pyridin-4-yl}methyl)-L-prolinamide] | 1260
CC(Nc1cc(CNC(=O)[C@@H]2CC(F)(F)CN2S(=O)(=O)c2ccc(Cl)s2)cc(-c2ccc(C(F)(F)F)cc2)n1)c1ccccc1 (stereo partly drawn) [Example 411, 1-[(5-Chlorothiophen-2-yl)sulfonyl]-4,4-difluoro-N-({2-[(1-phenylethyl)amino]-6-[4-(trifluoromethyl)phenyl]pyridin-4-yl}methyl)-L-prolinamide] | 1430
CC(Nc1cc(CNC(=O)[C@@H]2C=CCN2S(=O)(=O)c2ccc(F)cc2)cc(-c2ccc(C(F)(F)F)cc2)n1)c1ccncc1 (stereo partly drawn) [Example 412, (2S)-1-[(4-Fluorophenyl)sulfonyl]-N-({2-[(1-pyridin-4-ylethyl)amino]-6-[4-(trifluoromethyl)phenyl]pyridin-4-yl}methyl)-2,5-dihydro-1H-pyrrole-2-carboxamide] | 1270
CC(Nc1cc(CNC(=O)[C@@H]2CCCN2S(=O)(=O)c2ccc(F)cc2)cc(-c2ccc(C(F)(F)F)cc2)n1)c1ccccc1 (stereo partly drawn) [Example 413, 1-[(4-Fluorophenyl)sulfonyl]-N-({2-[(1-phenylethyl)amino]-6-[4-(trifluoromethyl)phenyl]pyridin-4-yl}methyl)-L-prolinamide] | 269
CC(Nc1cc(CNC(=O)[C@@H]2CCCN2S(=O)(=O)c2ccc(Cl)s2)cc(-c2ccc(C(F)(F)F)cc2)n1)c1ccccc1 (stereo partly drawn) [Example 414, 1-[(5-Chlorothiophen-2-yl)sulfonyl]-N-({2-[(1-phenylethyl)amino]-6-[4-(trifluoromethyl)phenyl]pyridin-4-yl}methyl)-L-prolinamide] | 57
CC(Nc1cc(CNC(=O)[C@@H]2CC(F)(F)CN2S(=O)(=O)c2ccc(Cl)s2)cc(-c2ccc(C(F)(F)F)cc2)n1)c1ccccn1 (stereo partly drawn) [Example 415, 1-[(5-Chlorothiophen-2-yl)sulfonyl]-4,4-difluoro-N-({2-[(1-pyridin-2-ylethyl)amino]-6-[4-(trifluoromethyl)phenyl]pyridin-4-yl}methyl)-L-prolinamide] | 570
CC(Nc1cc(CNC(=O)[C@@H]2CC(F)(F)CN2S(=O)(=O)c2ccc(F)cc2)cc(-c2ccc(C(F)(F)F)cc2)n1)c1ccccn1 (stereo partly drawn) [Example 416, 4,4-Difluoro-1-[(4-fluorophenyl)sulfonyl]-N-({2-[(1-pyridin-2-ylethyl)amino]-6-[4-(trifluoromethyl)phenyl]pyridin-4-yl}methyl)-L-prolinamide] | 1060
